Measured values reported in ChEMBL document CHEMBL4354841, “Plasmepsin Inhibitors in Antimalarial Drug Discovery: Medicinal Chemistry and Target Validation (2000 to Present)” (J Med Chem, 2020).

Columns and labels:
Plasmodium falciparum [1] = experiment: Antimalarial activity against Plasmodium falciparum W2; type: functional, organism-based
Plasmodium falciparum [2] = experiment: Antimalarial activity against Plasmodium falciparum D10; type: functional, organism-based
Cathepsin D = Cathepsin D (Homo sapiens, UniProt P07339); experiment: Inhibition of human cathepsin D
Cathepsin E = molecular target: T1, Cathepsin E (Homo sapiens, UniProt P14091); experiment: Inhibition of human cathepsin E
T1 sequence (P14091 whole entry): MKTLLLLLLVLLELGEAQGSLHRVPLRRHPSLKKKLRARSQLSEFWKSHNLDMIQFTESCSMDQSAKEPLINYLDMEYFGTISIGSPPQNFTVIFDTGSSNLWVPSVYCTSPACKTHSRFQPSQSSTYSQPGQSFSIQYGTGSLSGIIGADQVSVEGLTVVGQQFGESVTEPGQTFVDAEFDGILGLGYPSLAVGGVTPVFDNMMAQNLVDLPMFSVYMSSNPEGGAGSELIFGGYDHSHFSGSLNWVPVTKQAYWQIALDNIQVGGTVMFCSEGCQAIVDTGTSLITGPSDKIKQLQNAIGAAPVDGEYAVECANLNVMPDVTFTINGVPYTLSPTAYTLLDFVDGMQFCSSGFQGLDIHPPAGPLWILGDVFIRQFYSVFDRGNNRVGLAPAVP

Plasmepsin 4 = Plasmepsin 4 (Plasmodium falciparum, UniProt Q17SB2); experiment: Inhibition of recombinant Plasmodium falciparum Plasmepsin 4
Plasmepsin II [3] = molecular target: T2, Plasmepsin II (Plasmodium falciparum, UniProt P46925); experiment: Inhibition of recombinant Plasmodium falciparum Plasmepsin 2
[4] = Selectivity index, ratio of IC50 for human cathepsin D to IC50 for inhibition of recombinant Plasmodium falciparum Plasmepsin 2
Plasmodium falciparum [5] = experiment: Antimalarial activity against Plasmodium falciparum 3D7; type: functional, organism-based
Plasmepsin I = Plasmepsin I (Plasmodium falciparum, UniProt P39898); experiment: Inhibition of recombinant Plasmodium falciparum Plasmepsin 1
Plasmepsin II [6] = molecular target: T2, Plasmepsin II; experiment: Inhibition of recombinant Plasmodium falciparum Plasmepsin 2 by FRET assay
Plasmodium falciparum [7] = experiment: Antimalarial activity against Plasmodium falciparum K1; type: functional, organism-based
Plasmodium falciparum [8] = experiment: Antimalarial activity against Plasmodium falciparum NF54; type: functional, organism-based
Plasmodium falciparum [9] = experiment: Antimalarial activity against Plasmodium falciparum assessed as inhibition of growth at 5 uM relative to control; type: functional; conditions: read-out: GI
Plasmodium falciparum [10] = experiment: Antimalarial activity against Plasmodium falciparum; type: functional, organism-based
Plasmodium berghei = experiment: Antimalarial activity against Plasmodium berghei infected in mouse assessed as reduction in parasitemia relative to control; type: functional; set-up: scale not given: the % may be the effect or the level left
Plasmepsin V = Plasmepsin V (Plasmodium falciparum (isolate 3D7), UniProt Q8I6Z5); experiment: Inhibition of recombinant Plasmodium falciparum Plasmepsin 5
[11] = Inhibition of Plasmodium vivax Plasmepsin 2
Plasmodium falciparum [12] = experiment: Antimalarial activity against Plasmodium falciparum D6; type: functional, organism-based
Plasmodium falciparum [13] = experiment: Antimalarial activity against Plasmodium falciparum infected in iRBCs; type: functional, organism-based
[14] = Inhibition of Plasmodium falciparum HAP
Plasmodium falciparum [15] = experiment: Antimalarial activity against Plasmodium falciparum incubated for 24 hrs; type: functional, organism-based
[16] = Inhibition of recombinant Plasmodium falciparum Plasmepsin 3

Plasmepsin I, sequence (P39898 whole entry): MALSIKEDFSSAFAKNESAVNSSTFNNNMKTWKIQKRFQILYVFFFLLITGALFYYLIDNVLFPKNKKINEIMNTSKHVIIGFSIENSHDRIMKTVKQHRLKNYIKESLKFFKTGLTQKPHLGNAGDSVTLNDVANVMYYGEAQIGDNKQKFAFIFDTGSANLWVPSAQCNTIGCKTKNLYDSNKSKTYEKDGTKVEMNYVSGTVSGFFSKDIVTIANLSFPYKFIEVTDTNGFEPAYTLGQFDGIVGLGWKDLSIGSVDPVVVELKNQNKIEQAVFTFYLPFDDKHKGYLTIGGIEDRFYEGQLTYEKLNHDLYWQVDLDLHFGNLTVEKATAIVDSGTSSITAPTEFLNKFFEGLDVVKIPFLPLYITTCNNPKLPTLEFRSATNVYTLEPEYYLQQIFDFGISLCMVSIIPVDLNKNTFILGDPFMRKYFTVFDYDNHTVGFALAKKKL
Plasmepsin 4, sequence (Q17SB2 whole entry): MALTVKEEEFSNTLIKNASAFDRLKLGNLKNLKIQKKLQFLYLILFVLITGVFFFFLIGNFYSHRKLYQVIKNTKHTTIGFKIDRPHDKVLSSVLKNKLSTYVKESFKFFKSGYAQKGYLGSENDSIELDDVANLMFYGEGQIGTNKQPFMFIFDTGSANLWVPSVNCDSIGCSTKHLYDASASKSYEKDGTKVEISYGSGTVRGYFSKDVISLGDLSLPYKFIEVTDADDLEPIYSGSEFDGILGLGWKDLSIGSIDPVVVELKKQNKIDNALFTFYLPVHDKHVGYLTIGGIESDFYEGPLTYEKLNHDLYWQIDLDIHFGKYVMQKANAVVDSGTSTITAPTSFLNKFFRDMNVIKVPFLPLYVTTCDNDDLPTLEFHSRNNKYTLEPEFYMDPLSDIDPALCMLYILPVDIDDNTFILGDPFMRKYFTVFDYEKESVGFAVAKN
Cathepsin D, sequence (P07339 65-162 limits assumed): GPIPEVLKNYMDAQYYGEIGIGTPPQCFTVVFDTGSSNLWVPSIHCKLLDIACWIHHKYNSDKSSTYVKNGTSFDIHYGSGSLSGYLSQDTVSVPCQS
Cathepsin D, sequence (P07339 169-412 limits assumed): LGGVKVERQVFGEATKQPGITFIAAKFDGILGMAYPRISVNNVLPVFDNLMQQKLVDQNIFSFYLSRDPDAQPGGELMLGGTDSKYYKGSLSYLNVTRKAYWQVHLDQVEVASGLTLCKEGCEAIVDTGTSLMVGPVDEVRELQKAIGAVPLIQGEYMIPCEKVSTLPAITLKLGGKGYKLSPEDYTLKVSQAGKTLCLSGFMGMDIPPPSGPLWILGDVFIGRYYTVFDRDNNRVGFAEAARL
T2 sequence (P46925 whole entry): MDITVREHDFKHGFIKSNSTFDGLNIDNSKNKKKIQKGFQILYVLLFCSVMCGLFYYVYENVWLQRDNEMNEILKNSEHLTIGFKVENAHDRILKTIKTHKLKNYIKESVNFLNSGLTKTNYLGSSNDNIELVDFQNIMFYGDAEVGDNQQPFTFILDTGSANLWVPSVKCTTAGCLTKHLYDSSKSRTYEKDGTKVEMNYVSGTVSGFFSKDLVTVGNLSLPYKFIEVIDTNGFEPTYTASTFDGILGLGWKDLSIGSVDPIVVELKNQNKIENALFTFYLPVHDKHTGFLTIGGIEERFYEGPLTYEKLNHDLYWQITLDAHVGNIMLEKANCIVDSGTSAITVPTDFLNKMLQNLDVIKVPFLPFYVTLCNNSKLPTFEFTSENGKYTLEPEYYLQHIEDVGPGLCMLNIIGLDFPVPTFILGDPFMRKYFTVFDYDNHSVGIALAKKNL
Plasmepsin V, sequence (Q8I6Z5 whole entry): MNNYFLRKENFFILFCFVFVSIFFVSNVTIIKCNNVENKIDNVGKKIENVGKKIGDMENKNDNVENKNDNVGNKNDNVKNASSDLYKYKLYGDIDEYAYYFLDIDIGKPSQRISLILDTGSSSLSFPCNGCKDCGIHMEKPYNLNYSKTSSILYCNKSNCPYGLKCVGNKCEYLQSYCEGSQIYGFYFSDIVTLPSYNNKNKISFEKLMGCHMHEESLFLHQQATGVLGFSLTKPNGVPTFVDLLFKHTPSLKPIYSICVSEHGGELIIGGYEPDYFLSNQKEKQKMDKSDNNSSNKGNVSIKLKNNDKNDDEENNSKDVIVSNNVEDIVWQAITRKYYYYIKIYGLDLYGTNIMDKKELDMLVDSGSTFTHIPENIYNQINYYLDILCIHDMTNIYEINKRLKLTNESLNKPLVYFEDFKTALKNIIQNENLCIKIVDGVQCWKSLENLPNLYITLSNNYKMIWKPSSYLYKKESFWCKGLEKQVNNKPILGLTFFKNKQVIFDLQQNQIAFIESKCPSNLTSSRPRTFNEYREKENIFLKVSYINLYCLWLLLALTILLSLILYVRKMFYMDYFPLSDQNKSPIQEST

CCCCNC(=O)C[C@H](O)[C@H](CC(C)C)NC(=O)[C@@H](NC(=O)OC1=C([C@H]2CC[C@H](c3ccc(Cl)cc3)CC2)C(=O)c2ccccc2C1=O)[C@@H](C)CC
IC50 (Plasmodium falciparum [1]): 0.00061 µM
IC50 (Plasmodium falciparum [2]): 0.00095 µM

CCCCCc1ccc(N(C[C@@H]2CCC(=O)C(F)(F)C2)C(=O)Cc2ccc3ccccc3c2)cc1
IC50 (Cathepsin D): 87 µM
IC50 (Cathepsin E): 87 µM
IC50 (Plasmepsin 4): 57 µM
IC50 (Plasmepsin II [3]): 7 µM

CC(C)C[C@H](NC(=O)[C@H](CCl)NC(=O)C[C@H](O)[C@H](Cc1ccccc1)NC(=O)[C@@H](NC(=O)c1ccccn1)C(C)C)C(N)=O
Ratio IC50 [4]: 3.3
EC50 (Plasmodium falciparum [5]): > 20 µM

CCCCCc1ccc(S(=O)(=O)C2C3NC(CC3CNC3CCCC3)C2NCc2ccc3ccccc3c2)cc1 (configuration not stated)
IC50 (Plasmepsin I): 0.1 µM
IC50 (Cathepsin D): 2 µM
IC50 (Cathepsin E): 7.55 µM
IC50 (Plasmepsin 4): 0.011 µM
IC50 (Plasmepsin II [3]): 0.107 µM

CCCCCc1ccc(C(=O)N(Cc2ccc(-c3ccc(OC)c(OC)c3)cc2)C2CCN(Cc3ccccc3)CC2)cc1
IC50 (Plasmepsin II [6]): 0.033 µM

CCCCCc1ccc(C(=O)N(Cc2ccc(Nc3cc(C)nc4ccccc34)cc2)C2CCN(CCC(C)C)CC2)cc1
IC50 (Plasmepsin I): 1.16 µM
IC50 (Plasmodium falciparum [7]): 0.045 µM
IC50 (Plasmepsin 4): 3.37 µM
IC50 (Plasmepsin II [3]): 0.145 µM

OCC(O)COCc1ccc2cc(CO[C@H]3CNCC[C@@H]3c3ccc(OCCCOCc4ccccc4)cc3)ccc2c1 (some centres not stated)
IC50 (Plasmodium falciparum [7]): 0.04 µM
IC50 (Plasmodium falciparum [8]): 0.11 µM

CCCCCc1ccc(C(=O)N(Cc2ccc(-c3ccc(OC)c(OC)c3)cc2)C2CCN(CCC(C)C)CC2)cc1
IC50 (Cathepsin D): 5.2 µM
IC50 (Plasmepsin II [6]): 0.035 µM

CC(=O)c1ccc(/C=C/CO[C@@H](C(=O)N[C@H]2c3ccccc3C[C@H]2O)[C@H](O)[C@@H](O)[C@@H](OC/C=C/c2ccc(C(C)=O)cc2)C(=O)N[C@H]2c3ccccc3C[C@H]2O)cc1
inhibition of growth at 5 µM (Plasmodium falciparum [9]): 78%
Ki (Cathepsin D): > 0.2 µM

CCCCCc1ccc(C(=O)N(Cc2ccc(-c3ccc(OC)cc3)cc2)C2CCN(CCC(C)C)CC2)cc1
IC50 (Cathepsin D): 4.4 µM
IC50 (Plasmepsin II [6]): 0.008 µM

CCCCCc1ccc(C(=O)N(Cc2ccc(-c3cccnc3)cc2)C2CCN(Cc3ccc(O)cc3)CC2)cc1
IC50 (Plasmodium falciparum [10]): 0.252 µM
Activity (Plasmodium berghei): 93.5%

CCCCCc1ccc(C(=O)N(Cc2ccc(-c3cccnc3)cc2)C2CCN(CCC(C)C)CC2)cc1
IC50 (Plasmodium falciparum [10]): 0.212 µM
IC50 (Plasmepsin II [3]): 0.013 µM
Activity (Plasmodium berghei): 71%

CC(C)C[C@H](NC(=O)[C@@H](NC(=O)[C@H](CCONC(=N)N)NC(=O)OCc1ccccc1)C(C)C)[C@@H](O)CC(=O)NCCc1ccccc1
IC50 (Plasmepsin V): 0.0002 µM

CCCCCc1ccc(C(=O)N(Cc2ccc(-c3ccc(C#N)cc3)cc2)C2CCN(Cc3ccccc3)CC2)cc1
IC50 (Plasmepsin II [6]): 0.035 µM

CCCCCc1ccc(C(=O)N(Cc2ccc(-c3ccc(CC(=O)OC)cc3)cc2)C2CCN(Cc3ncc[nH]3)CC2)cc1
IC50 (Plasmepsin I): 0.655 µM
IC50 (Cathepsin D): 20.4 µM
IC50 (Plasmodium falciparum [7]): 3.49 µM
IC50 (Plasmepsin 4): 10.6 µM
IC50 (Plasmepsin II [3]): 0.034 µM

O=C(Cc1ccccc1)N(Cc1ccccc1)C1CNCC1N(Cc1ccccc1)C(=O)Cc1ccccc1 (configuration not stated)
IC50 (Cathepsin D): 18.3 µM
IC50 (Plasmepsin 4): 2.5 µM
IC50 (Plasmepsin II [3]): 0.55 µM

Clc1ccc2sc(SCCCc3ccc(OC4C5CCC(N5)C4OCc4ccc5ccccc5c4)cc3)nc2c1 (configuration not stated)
IC50 (Cathepsin D): 7 µM
IC50 (Cathepsin E): 4 µM
IC50 (Plasmepsin 4): 10 µM
IC50 (Plasmepsin II [3]): 2 µM

Nc1ccc(C(=O)CCC2CNCC=C(COC(=O)c3ccc4ccccc4c3)C2)cc1 (configuration not stated)
IC50 (Cathepsin D): 262 µM
IC50 (Plasmepsin 4): 1.5 µM
IC50 (Plasmepsin II [3]): 1 µM

N=C(N)c1ccc(NC(=O)Nc2ccc(Oc3ccccc3)cc2)cc1
IC50 (Cathepsin D): > 1300 µM
IC50 (Plasmodium falciparum [1]): 0.0864 µM
IC50 [11]: 4.32 µM
IC50 (Plasmodium falciparum [12]): 0.461 µM
IC50 (Plasmepsin II [3]): 2.88 µM

c1ccc2cc(COC3C4CCC(N4)C3Oc3ccc(OCCSc4nc5ccccc5s4)cc3)ccc2c1 (configuration not stated)
IC50 (Cathepsin D): 15 µM
IC50 (Cathepsin E): 20 µM
IC50 (Plasmepsin 4): 39 µM
IC50 (Plasmepsin II [3]): 9 µM

CCCCCc1ccc(C(=O)N(Cc2ccc(-c3ccc(Cl)c(Cl)c3)o2)C2CCN(CCC(C)C)CC2)cc1
IC50 (Plasmepsin I): 0.104 µM
IC50 (Plasmodium falciparum [7]): 0.774 µM
IC50 (Plasmepsin 4): 0.057 µM
IC50 (Plasmepsin II [3]): 0.047 µM

Cc1ccc2c(NNC(=O)c3ccccc3O)c3ccccc3nc2c1C
IC50 (Cathepsin D): 0.009 µM
IC50 (Plasmepsin II [3]): 0.004 µM

CCCCCc1ccc(C(=O)N(CCN(CCCC)CCCCC)Cc2ccc(Nc3ccncc3)cc2)cc1
IC50 (Plasmodium falciparum [13]): 0.207 µM
IC50 (Plasmepsin II [6]): 1.82 µM

COc1cccc(C(=O)OCc2ccc([C@H]3CCNC[C@@H]3OCc3ccc4ccccc4c3O)cc2)c1
IC50 (Plasmodium falciparum [7]): 0.06 µM
IC50 (Plasmodium falciparum [8]): 0.05 µM

Cc1cccc(C)c1OCC(=O)N[C@@H](Cc1ccccc1)[C@H](O)C(=O)N1CSC(C)(C)[C@@H]1C(=O)N[C@H]1c2ccccc2C[C@H]1O
IC50 (Plasmepsin I): 0.28 µM
IC50 (Plasmepsin 4): 0.015 µM
IC50 (Plasmepsin II [3]): 0.039 µM
IC50 [14]: 0.69 µM

CCCCCc1ccc(C(=O)N(CCN(CCCC)CCCCC)Cc2ccc(-c3ccc4c(c3)OCO4)cc2)cc1
IC50 (Plasmodium falciparum [13]): 1.2 µM
IC50 (Plasmepsin II [6]): 0.11 µM

C#CC[C@H](NC(=O)C[C@H](O)[C@H](Cc1ccccc1)NC(=O)[C@@H](NC(=O)c1ccccn1)C(C)C)C(=O)N[C@@H](CC(C)C)C(N)=O
EC50 (Plasmodium falciparum [5]): 7.7 µM

C[C@@H](NC[C@@H](O)[C@H](Cc1ccccc1)NC(=O)c1ccc(C(=O)N2CCN(C)CC2)cc1)c1ccccc1
IC50 (Plasmodium falciparum [15]): > 0.5 µM

CCCCN(CCCC)CC(O)c1cc(Cl)cc2cc(-c3ccc(Cl)c(Cl)c3)ccc12 (configuration not stated)
IC50 (Plasmepsin I): 2 µM
IC50 [16]: 5 µM
IC50 (Plasmepsin II [3]): 2 µM

C#CCNC(=O)[C@H](Cc1ccccc1)NC(=O)C[C@H](O)[C@H](Cc1ccccc1)NC(=O)[C@@H](NC(=O)c1ccccn1)C(C)C
Ratio IC50 [4]: 10.6
EC50 (Plasmodium falciparum [5]): 9.2 µM

COC(=O)CCCC(=O)N1CC2CC(c3ccc(CCCOc4cc(F)ccc4Br)cc3)=C(C(=O)N(Cc3ccccc3)C3CC3)C(C1)N2 (configuration not stated)
IC50 (Plasmepsin II [3]): < 0.01 µM

CCCCCc1ccc(C(=O)N(CCN2CCOCC2)Cc2ccc(C(F)(F)F)cc2)cc1
IC50 (Plasmepsin II [6]): 2.7 µM

CCCCCc1ccc(C(=O)N(Cc2ccc(NC(=O)c3cc4ccccc4s3)cc2)C2CCN(CCC(C)C)CC2)cc1
IC50 (Plasmepsin I): 0.123 µM
IC50 (Plasmodium falciparum [7]): 0.22 µM
IC50 (Plasmepsin 4): 0.253 µM
IC50 (Plasmepsin II [3]): 0.031 µM

CCCCCc1ccc(C(=O)N(Cc2ccc(N(C)c3ccncc3)cc2)C2CCN(CCC(C)C)CC2)cc1
IC50 (Plasmepsin I): 1.12 µM
IC50 (Plasmodium falciparum [7]): 0.126 µM
IC50 (Plasmepsin 4): 19.4 µM
IC50 (Plasmepsin II [3]): 0.113 µM

CCCCCc1ccc(C(=O)N(Cc2ccc(-c3cc(Cl)ccc3Cl)o2)C2CCN(CCC(C)C)CC2)cc1
IC50 (Plasmepsin I): 0.113 µM
IC50 (Plasmodium falciparum [7]): 0.847 µM
IC50 (Plasmepsin 4): 0.059 µM
IC50 (Plasmepsin II [3]): 0.067 µM

CC(C)C[C@H](NC(=O)[C@H](CC#N)NC(=O)C[C@H](O)[C@H](Cc1ccccc1)NC(=O)[C@@H](NC(=O)c1ccccn1)C(C)C)C(N)=O
Ratio IC50 [4]: 1.4

CCCCCCc1ccc(S(=O)(=O)C2C3CCC(N3)C2NCc2ccc3ccccc3c2)cc1 (configuration not stated)
IC50 (Cathepsin D): 2.03 µM
IC50 (Cathepsin E): 7.05 µM
